Data on one compound can be found in paper PMC10049026, “In Silico Binding of 2-Aminocyclobutanones to SARS-CoV-2 Nsp13 Helicase and Demonstration of Antiviral Activity” (International Journal of Molecular Sciences, 2023).

Read-outs that look alike come from different tables or passages of the source.

The test system of experiment [1] is Delta Variant hCoV-19/USA/MD-HP05285/2021 (Lineage B.1.617.2). Briefly: microbe, parasite or virus in culture. In kind it is cell-based, SARS-CoV-2. Particulars: for IC50: Severe acute respiratory syndrome coronavirus 2.
For experiment [2], the system named is Omicron Variant hCoV-19/USA/MD-HP20874/2021 (Lineage B.1.1.529). Briefly: microbe, parasite or virus in culture. In kind it is cell-based, SARS-CoV-2. Particulars: Severe acute respiratory syndrome coronavirus 2.

With `Cc1ccc(S(=O)(=O)N[C@@H](Cc2c[nH]c3ccccc23)C(=O)NC2CCC2=O)cc1` (stereo partly drawn) [Compound 4, (2S)-3-(1H-Indol-3-yl)-2-((4-methylphenyl)sulfonamido)-N-(2-oxocyclobutyl)propanamide], in experiment [1], the “difference in IC50, variants vs wild-type” value is on record as 10 to 20 fold. The IC50 in experiment [1] (read-out: IC50, Delta VOC (Figure 5)) came to 943 ± 526 nM; in experiment [1] (read-out: IC50 Values For inhibition of SARS-CoV-2 Mediated Cell Death, Delta), 220 nM; in experiment [2] (read-out: IC50, Omicron VOC (Figure 5)), 2590 ± 1280 nM; in experiment [2] (read-out: IC50 Values For inhibition of SARS-CoV-2 Mediated Cell Death, Omicron), 1580 nM.
